This is an account of results in patent US11873298B2, “Compounds and uses thereof” (JANSSEN PHARMACEUTICA NV, priority 2017, dated 2024).

The target of one assay is T1, SCD5 (Homo sapiens, UniProt Q86SK9).
T1 construct: host or cells: S. cerevisiae ole1Δ strain (W303 pdr1Δ pdr3Δ background), plasmid pRS316 with TDH3 promoter and CYC1 terminator
T1 sequence (Q86SK9 1-330): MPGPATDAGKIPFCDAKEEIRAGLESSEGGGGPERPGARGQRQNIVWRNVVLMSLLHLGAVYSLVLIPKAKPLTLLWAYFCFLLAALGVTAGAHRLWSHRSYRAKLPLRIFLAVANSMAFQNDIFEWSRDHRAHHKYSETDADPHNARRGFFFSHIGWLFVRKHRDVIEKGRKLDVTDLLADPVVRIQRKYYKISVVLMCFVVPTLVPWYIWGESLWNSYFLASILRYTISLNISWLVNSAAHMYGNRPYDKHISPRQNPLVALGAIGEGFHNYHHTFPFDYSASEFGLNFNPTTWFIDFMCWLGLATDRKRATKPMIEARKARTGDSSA
In words: Growth inhibition of humanized yeast strain expressing SCD5 as sole desaturase. The assay is classed as cell-based. The method, boiled down: (§1)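 ole1Δ yeast (W303 pdr1Δ pdr3Δ background) carrying plasmid-borne Ole1, SCD1 or SCD5, grown in uracil-free media; cultures pre-grown in raffinose, seeded at 2× density 0.02 in galactose media with compound. Growth read as OD600 after 24 h at 30° C. for Ole1, 40 h for SCD1/SCD5.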

A further assay has as its target T2, SCD1 (Homo sapiens, UniProt O00767).
T2 construct: host or cells: S. cerevisiae ole1Δ strain (W303 pdr1Δ pdr3Δ background), plasmid pRS316 with TDH3 promoter and CYC1 terminator
T2 sequence (O00767 1-359): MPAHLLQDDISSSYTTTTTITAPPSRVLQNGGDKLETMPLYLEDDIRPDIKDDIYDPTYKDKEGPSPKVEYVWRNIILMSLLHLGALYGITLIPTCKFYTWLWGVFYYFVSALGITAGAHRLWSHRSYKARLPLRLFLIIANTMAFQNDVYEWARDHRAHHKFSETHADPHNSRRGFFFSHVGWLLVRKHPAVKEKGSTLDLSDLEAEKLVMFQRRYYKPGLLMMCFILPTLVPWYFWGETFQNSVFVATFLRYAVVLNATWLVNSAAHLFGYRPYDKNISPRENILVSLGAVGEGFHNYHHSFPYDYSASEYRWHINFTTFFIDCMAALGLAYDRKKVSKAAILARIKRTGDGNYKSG
In words: Growth inhibition of humanized yeast strain expressing SCD1 as sole desaturase. It counts as cell-based. The method, boiled down: as §1

Setting [1] is: growth inhibition of humanized yeast strain expressing human SCD5.
Where [2] appears, read: growth inhibition of humanized yeast strain expressing human SCD1.
[3] abbreviates: humanized yeast strain expressing SCD5.
Where [4] appears, read: humanized yeast strain expressing SCD1.

Some results are limits rather than exact numbers.

As a reminder, the IC50 is the concentration needed to halve the response being measured. A low value points to greater potency in that assay. With `CNC(=O)Cn1ncc2ccc(-c3noc(C4CCN(C(=O)OC(C)(C)C)CC4)n3)cc21` [Compound 644], the IC50 on SCD5 (setting [1]) and against SCD1 (setting [2]) was over 45 µM throughout.
In the case of `O=C(N1CCC(c2noc(-c3ccnc(C4CCOC4)c3)n2)CC1)C1(F)CCC1` (stereo not shown) [Compound 1097], the IC50 against SCD5 (humanized yeast strain, 40 h) was 0.02 µM; on SCD1 (humanized yeast strain, 40 h), over 45 µM.
For `COC(=O)N1CCC(c2noc(-c3ccc4ccn(C(C)C)c4c3)n2)CC1` [Compound 1037], in that order: 0.457 µM and 10.2 µM.
For the compound `CC(C)n1ncc2ccc(-c3nc(C4CCN(C(=O)OC5(C)CC5)CC4)no3)cc21` [Compound 628], the IC50 at SCD5 (setting [1]) is 0.01 µM; against SCD1 (setting [2]) it was over 45 µM.
`C=C(C)c1ccc(C(=O)N2CCC(c3nc(-c4ccc5cnn(C)c5c4)no3)CC2)nc1` [Compound 501]: the 50% inhibitory concentration (IC50) came to 21.3 µM against SCD5 (setting [3]) and 12.2 µM at SCD1 (setting [4]).
In the case of `CC(C)n1ncc2ccc(-c3nnc(C4CCN(C(=O)CC5(C)CC5)CC4)[nH]3)cc21` [Compound 691], the 50% inhibitory concentration (IC50) against SCD5 (setting [1]) and at SCD1 (setting [2]) was over 45 µM each time.
With `O=C(c1ncccc1Cl)N1CCC(c2noc(-c3ccc4cnn(C5COC5)c4c3)n2)CC1` [Compound 695], the results for the half-maximal inhibitory concentration (IC50) against SCD5 (setting [1]) and at SCD1 (setting [2]) were 2.39 µM and over 45 µM, respectively.
For `CC(C)n1nc(CCO)c2ccc(-c3noc(C4CCN(C(=O)OC(C)(C)C)CC4)n3)cc21` [Compound 699], in that order: 7.65 µM and over 45 µM.
For the compound `CC(C)c1noc2ccc(-c3noc(C4CCN(C(=O)C5CC5)CC4)n3)cc12` [Compound 941], the IC50 at SCD5 (humanized yeast strain, 40 h) was 20.4 µM; at SCD1 (humanized yeast strain, 40 h), over 45 µM.
For `CC(C)(C)OC(=O)N1CCC(c2noc(-c3ccc4cnn(C5CCOC5)c4c3)n2)CC1` (stereo not shown) [Compound 817] the same measures were 0.01 µM and 4.13 µM.
As to `CC(C)N1C(=O)Cc2ccc(-c3noc(C4CCN(C(=O)OC5(C)CC5)CC4)n3)cc21` [Compound 610], the half-inhibitory concentration (IC50) on SCD5 (setting [1]) is 2.16 µM; against SCD1 (setting [2]) it was over 45 µM.
For `COC(=O)N1CCN(c2noc(-c3ccc4cnn(C5COC5)c4c3)n2)CC(F)(F)C1` [Compound 1034], the IC50 on SCD5 (humanized yeast strain, 40 h) was 0.639 µM; at SCD1 (humanized yeast strain, 40 h) it was over 45 µM.
On to `CC(CCO)n1ncc2ccc(-c3noc(C4CCN(C(=O)OC(C)(C)C)CC4)n3)cc21` (stereo not shown) [Compound 641], for which the figures for the concentration for half-maximal inhibition (IC50) against SCD5 (setting [1]) and on SCD1 (setting [2]) were 6.72 µM and over 45 µM, respectively.
`CC(=O)N1CC(n2ncc3ccc(-c4nc(C5CCN(C(=O)OC(C)(C)C)CC5)no4)cc32)C1` [Compound 861]: the 50% inhibitory concentration (IC50) on SCD5 (humanized yeast strain, 40 h) was 0.01 µM; against SCD1 (humanized yeast strain, 40 h) it was 15 µM.
For `CC(C)(C)OC(=O)N1CCC(N2CCN(c3ccc4cnn(C5COC5)c4c3)C2=O)CC1` [Compound 810], in that order: 2.5 µM and over 45 µM.
With `COC1(C(=O)N2CCC(c3noc(-c4ccc5cnn(C6COC6)c5c4)n3)CC2)CC1` [Compound 902], the concentration for half-maximal inhibition (IC50) on SCD5 (humanized yeast strain, 40 h) was 0.01 µM; at SCD1 (humanized yeast strain, 40 h) it was over 45 µM.
For `COC(=O)N1CCC(c2noc(-c3ccc4ccn(C5COC5)c4c3)n2)CC1` [Compound 1036] the same measures were 0.01 µM and over 45 µM.
For `CC(C)n1ncc2ccc(-c3nc(N4CCN(C(=O)c5ncccc5F)CC4)no3)cc21` [Compound 845], in that order: 0.637 µM and over 45 µM.
For `CC(C)(C)OC(=O)N1CCN(c2nc(-c3cccc(C4CCOC4)c3)no2)CC1` (stereo not shown) [Compound 829], in that order: 2.2 µM and over 45 µM.
Consider `CC(C)n1ncc2ccc(-c3nc(C4CCN(C(=O)OC(C)(C)C)C4)no3)cc21` (stereo not shown) [Compound 524], for which the IC50 is 2.5 µM against SCD5 (setting [3]) and over 45 µM at SCD1 (setting [4]).
As to `O[C@H]1C[C@@H](n2ncc3ccc(-c4nc(N5CCn6c(Cl)cnc6C5)no4)cc32)C1` [Compound 958], the IC50 against SCD5 (humanized yeast strain, 40 h) is 34.5 µM; against SCD1 (humanized yeast strain, 40 h) it was over 45 µM.
For `CC(C)(C)OC(=O)N1CCC(c2nnc(-c3ccc4cnn(C5CCOC5)c4c3)o2)CC1` (stereo not shown) [Compound 971] the same measures were 0.089 µM and over 45 µM.
For `CC(C)(C)OC(=O)N1CCC(c2noc(-c3ccc4cnn(C5COC5)c4c3)n2)CC1` [Compound 750] the same measures were 0.01 µM and 3.25 µM.
For `O=C(CC1CC1)N1CCC(c2noc(-c3ccc4cnn([C@@H]5CCOC5)c4c3)n2)CC1` [Compound 1104] the same measures were 0.01 µM and over 45 µM.
On to `CC1(OC(=O)N2CCN(c3noc(-c4ccc5cnn(C6COC6)c5c4)n3)CC2)CC1` [Compound 735], for which the IC50 on SCD5 (setting [1]) was 0.01 µM; against SCD1 (setting [2]), 3.99 µM.
On to `COC(=O)N1CCC(c2noc(-c3ccc4cnn([C@H]5CCOC5)c4c3)n2)CC1` [Compound 879], for which the half-inhibitory concentration (IC50) at SCD5 (humanized yeast strain, 40 h) was 0.01 µM; against SCD1 (humanized yeast strain, 40 h) it was 5.5 µM.
For `COC(=O)N1CCC(c2nc(-c3ccnc(C(O)C(C)C)c3)no2)CC1` (stereo not shown) [Compound 856] the same measures were over 45 µM and over 45 µM.
For `CCC(=O)N1CCC(c2noc(-c3cccc(N4CCOCC4)c3F)n2)CC1` [Compound 1159], in that order: over 45 µM and over 45 µM.
For the compound `O=C(C1CC1)N1CCN(c2nnc(-c3ccc4cnn(C5COC5)c4c3)o2)CC1` [Compound 987], the IC50 against SCD5 (humanized yeast strain, 40 h) is over 45 µM; at SCD1 (humanized yeast strain, 40 h), over 45 µM.
Take `CC(C)(C)OC(=O)N1CCC(c2noc(-c3ccc4cnn(C5COC5)c4c3)n2)CC1` [Compound 643]: the 50% inhibitory concentration (IC50) against SCD5 (setting [1]) was 0.01 µM; at SCD1 (setting [2]), over 45 µM.
For `Cc1nn(C)c2cc(-c3noc(C4CCN(c5nc6ccccc6o5)CC4)n3)ccc12` [Compound 669] the same measures were over 45 µM and over 45 µM.
On to `O=C(N1CCN(c2noc(-c3ccc4cnn(C5COC5)c4c3)n2)CC1)C12CC(C1)C2` [Compound 843], for which the IC50 against SCD5 (humanized yeast strain, 40 h) was 0.033 µM; on SCD1 (humanized yeast strain, 40 h), over 45 µM.
Take `CC(C)(C)OC(=O)N1CCC(c2noc(-c3ccc4cnn(C5CNC5)c4c3)n2)CC1` [Compound 918]: the concentration for half-maximal inhibition (IC50) was 0.8 µM against SCD5 (humanized yeast strain, 40 h) and over 45 µM against SCD1 (humanized yeast strain, 40 h).
Turning to `CC(C)(C)OC(=O)N1CCN(c2noc(-c3ccc4cnn(C5CS(=O)(=O)C5)c4c3)n2)CC1` [Compound 997], the IC50 is 0.022 µM at SCD5 (humanized yeast strain, 40 h) and over 45 µM against SCD1 (humanized yeast strain, 40 h).
Regarding `CC(C)(C)OC(=O)N1CCC(c2nc(-c3ccc4cnn(C5CC(F)(F)C5)c4c3)no2)CC1` [Compound 742], the IC50 was 5.05 µM against SCD5 (setting [1]) and over 45 µM on SCD1 (setting [2]).
`CC(C)(C)OC(=O)N1CCC(c2noc(-c3cnc4cnn(C5COC5)c4c3)n2)CC1` [Compound 1047]: the IC50 against SCD5 (humanized yeast strain, 40 h) is 0.01 µM; at SCD1 (humanized yeast strain, 40 h), at least 45 µM.
For `COC(=O)N1CCC(c2noc(-c3cnc4cnn(C5COC5)c4c3)n2)CC1` [Compound 1052] the same measures were 0.253 µM and over 45 µM.
For `O=C(C1CCC1)N1CCC(c2noc(-c3ccc4oc(=O)n(C5COC5)c4c3)n2)CC1` [Compound 1127] the same measures were 1.47 µM and over 45 µM.
On to `CC(C)(C)OC(=O)N1CCC(c2nc(-c3ccc4cncn4c3)no2)CC1` [Compound 825], for which the IC50 against SCD5 (humanized yeast strain, 40 h) was 9.49 µM; at SCD1 (humanized yeast strain, 40 h), over 45 µM.
Consider `CC(C)n1ncc2ccc(-c3noc(C4CCN(C(=O)C56CC(C5)C6)CC4)n3)cc21` [Compound 705], for which the values for the concentration for half-maximal inhibition (IC50) at SCD5 (setting [1]) and at SCD1 (setting [2]) were 0.174 µM and 14.4 µM, respectively.
With `CC(C)n1ncc2c1CN(c1noc(C3CCN(C(=O)OC(C)(C)C)CC3)n1)CC2` [Compound 827], the 50% inhibitory concentration (IC50) on SCD5 (humanized yeast strain, 40 h) is over 45 µM; at SCD1 (humanized yeast strain, 40 h) it was over 45 µM.
Take `CC(C)n1nc(CO)c2ccc(-c3noc(C4CCN(C(=O)OC(C)(C)C)CC4)n3)cc21` [Compound 781]: the concentration for half-maximal inhibition (IC50) against SCD5 (humanized yeast strain, 40 h) was 4.8 µM; against SCD1 (humanized yeast strain, 40 h) it was over 45 µM.
For `CC(C)(C)CC(=O)N1CCC(c2nc(-c3cccc(C4CCOC4)c3)no2)CC1` (stereo not shown) [Compound 782], in that order: 0.149 µM and over 45 µM.
As to `CC(C)(C)OC(=O)N1CCC(c2nc(-c3ccc4cnn(C(C)(C)CO)c4c3)no2)CC1` [Compound 736], the IC50 on SCD5 (setting [1]) worked out at 0.26 µM; against SCD1 (setting [2]), 32.6 µM.
As for `CC(C)OC(=O)N1CCC(c2nc(-c3ccc4cnn(C(C)C)c4c3)no2)CC1` [Compound 357], on SCD5 (setting [3]), the concentration for half-maximal inhibition (IC50) was over 45 µM and the “SCD5 % Max Inhibition” value is reported as 2.31%. The “SCD1 % Max Inhibition” value at SCD1 (setting [4]) came to 64.32%.
`CC(C)(C)OC(=O)N1CCN(c2nnc(-c3ccc4cnn(C5COC5)c4c3)o2)CC1` [Compound 976]: the IC50 against SCD5 (humanized yeast strain, 40 h) is 5.33 µM; against SCD1 (humanized yeast strain, 40 h), over 45 µM.
As for `CC(C)(C)OC(=O)N1CCC(c2noc(-c3ccnc(C4CCOC4)c3)n2)CC1` (stereo not shown) [Compound 999], the IC50 was 0.01 µM at SCD5 (humanized yeast strain, 40 h) and over 45 µM against SCD1 (humanized yeast strain, 40 h).
Regarding `CC(C)n1ncc2ccc(-c3nc(N4CCN(C(=O)OC5(C)CC5)CC4)no3)cc21` [Compound 682], the IC50 was 0.01 µM against SCD5 (setting [1]) and over 45 µM against SCD1 (setting [2]).
